Data reported in patent US7572818B2, “2-pyridylethylbenzamide derivative” (Bayer Cropscience S.A., priority 2002, dated 2009).

These molecules were tested on Alternaria brassicae (assay: In vivo test of activity on Alternaria brassicae (crucifer black spot) on radish). Settings: 250 g/ha, preventive spray 24 h before inoculation.
Description: In Vivo Test of Activity on Alternaria brassicae (Crucifer Black Spot)
An aqueous solution of the active material to be tested is prepared at a concentration of 2 g/l by grinding in solution 1 or solution 2:
• Water • Tween 80 diluted to 10% in water: 5 μl/mg of active material • Clay in a sufficient amount for active material+clay to equal 100 mg; Solution 2
Concentrated solution containing surfactants and adjuvants conventionally used: 200 μl/mg of active material.
The aqueous solution is diluted with water so as to obtain the desired concentration.
Radishes of the Pernot variety are sown in a 50/50 pozzolan/peat substrate and maintained at 18-22° C. The treatment is carried out by spraying the aqueous suspension. The untreated control plants are sprayed with water. 24 hours after treatment, the plants are inoculated by spraying a solution of Alternaria brassicae spores (40 000 spores/ml) originating from a 12-day culture.
The radish plants are then maintained at 18-20° C. in a humid atmosphere. The effectiveness of the products is evaluated relative to the control plants after seven to eight days of incubation.
The effectiveness of the molecules is estimated, at 500 g/ha, 250 g/ha or 330 ppm, by the percentage of control relative to untreated plants. Under these conditions, good effectiveness is defined as more than 80% effectiveness. Average effectiveness is defined as an effectiveness between 50 and 80%. Poor effectiveness is defined as an effectiveness between 10 and 50% and zero effectiveness is defined as less than 10% effectiveness.

| Compound | effectiveness (percentage of control relative to untreated plants) |
| --- | --- |
| O=C(NCCc1ncc(C(F)(F)F)cc1Cl)c1cccc(C(F)(F)F)c1 [Compound A-28] | good to average |
| O=C(NCCc1ncc(C(F)(F)F)cc1Cl)c1cc(F)c(F)cc1F [Compound A-41] | good to average |
| O=C(NCCc1ncc(C(F)(F)F)cc1Cl)c1ccccc1[N+](=O)[O-] [Compound A-29] | good to average |

Same assay, conditions: 330 ppm, preventive spray 24 h before inoculation

| Compound | effectiveness (percentage of control relative to untreated plants) |
| --- | --- |
| O=C(NCCc1ncc(C(F)(F)F)cc1Cl)c1ccc(Cl)c(C(F)(F)F)c1 [Compound A-147] | good to average |
| O=C(NCCc1ncc(C(F)(F)F)cc1Cl)c1cc(I)c(O)c(I)c1 [Compound A-169] | good to average |
| Cc1ccc(C)c(C(=O)NCCc2ncc(C(F)(F)F)cc2Cl)c1 [Compound A-62] | good to average |
| COc1cc(OC)c(C(=O)NCCc2ncc(C(F)(F)F)cc2Cl)cc1OC [Compound A-84] | good to average |
| CSc1cc(Cl)ccc1C(=O)NCCc1ncc(C(F)(F)F)cc1Cl [Compound A-127] | good to average |
| CSc1c(F)ccc(C(=O)NCCc2ncc(C(F)(F)F)cc2Cl)c1F [Compound A-165] | good to average |
| CS(=O)(=O)c1ccc(C(=O)NCCc2ncc(C(F)(F)F)cc2Cl)c(C(F)(F)F)c1 [Compound A-138] | good to average |
| O=C(NCCc1ncc(C(F)(F)F)cc1Cl)c1ccc(Cl)cc1I [Compound A-176] | good to average |
| CS(=O)(=O)c1ccc(C(=O)NCCc2ncc(C(F)(F)F)cc2Cl)c(Br)c1 [Compound A-137] | good to average |
| Cc1cccc(C(=O)NCCc2ncc(C(F)(F)F)cc2Cl)c1C [Compound A-60] | good to average |
| O=C(NCCc1ncc(C(F)(F)F)cc1Cl)c1ccc(C(F)(F)F)cc1C(F)(F)F [Compound A-74] | good to average |
| O=C(NCCc1ncc(C(F)(F)F)cc1Cl)c1ccc(Cl)c(Br)c1 [Compound A-141] | good to average |
| Cc1ccc(I)c(C(=O)NCCc2ncc(C(F)(F)F)cc2Cl)c1 [Compound A-177] | good to average |
| CSc1c(C(=O)NCCc2ncc(C(F)(F)F)cc2Cl)ccc(Cl)c1Br [Compound A-146] | good to average |
| Cc1ccc(Cl)c(C(=O)NCCc2ncc(C(F)(F)F)cc2Cl)c1 [Compound A-184] | good to average |
| O=C(NCCc1ncc(C(F)(F)F)cc1Cl)c1cc(Cl)ccc1Cl [Compound A-49] | good to average |
| Cc1c(C(=O)NCCc2ncc(C(F)(F)F)cc2Cl)cccc1[N+](=O)[O-] [Compound A-77] | good to average |
| CSc1cc(C(F)(F)F)ccc1C(=O)NCCc1ncc(C(F)(F)F)cc1Cl [Compound A-143] | good to average |
| CSc1ccc(C(=O)NCCc2ncc(C(F)(F)F)cc2Cl)c(C)c1 [Compound A-142] | good to average |
| COc1ccc(C(C)(C)C)cc1C(=O)NCCc1ncc(C(F)(F)F)cc1Cl [Compound A-92] | good to average |
| CCc1cc(Br)ccc1C(=O)NCCc1ncc(C(F)(F)F)cc1Cl [Compound A-152] | good to average |
| O=C(NCCc1ncc(C(F)(F)F)cc1Cl)c1cccc(F)c1Br [Compound A-122] | good to average |
| Cc1cccc(C(=O)NCCc2ncc(C(F)(F)F)cc2Cl)c1Cl [Compound A-178] | good to average |
| Cc1cccc(C(=O)NCCc2ncc(C(F)(F)F)cc2Cl)c1Br [Compound A-180] | good to average |
| O=C(NCCc1ncc(C(F)(F)F)cc1Cl)c1cccc(Cl)c1Cl [Compound A-48] | good to average |
| Cc1cccc(C(=O)NCCc2ncc(C(F)(F)F)cc2Cl)c1N [Compound A-194] | good to average |
| Cc1cc(Br)ccc1C(=O)NCCc1ncc(C(F)(F)F)cc1Cl [Compound A-80] | good to average |

| Compound | effectiveness (percentage of control relative to untreated plants) |
| --- | --- |
| Cc1ccc(F)cc1C(=O)NCCc1ncc(C(F)(F)F)cc1Cl [Compound A-186] | good to average |
| O=C(NCCc1ncc(C(F)(F)F)cc1Cl)c1c(F)cccc1Br [Compound A-112] | good to average |
| Cc1cc(C(=O)NCCc2ncc(C(F)(F)F)cc2Cl)c([N+](=O)[O-])cc1C [Compound A-156] | good to average |
| O=C(NCCc1ncc(C(F)(F)F)cc1Cl)c1cc(I)ccc1Cl [Compound A-185] | good to average |
| COc1c(F)ccc(C(=O)NCCc2ncc(C(F)(F)F)cc2Cl)c1SC [Compound A-148] | good to average |
| Cc1cc(C(=O)NCCc2ncc(C(F)(F)F)cc2Cl)c(Cl)c(C)c1F [Compound A-123] | good to average |
| CS(=O)(=O)c1cc(C(F)(F)F)ccc1C(=O)NCCc1ncc(C(F)(F)F)cc1Cl [Compound A-139] | good to average |
| Cc1ccc([N+](=O)[O-])cc1C(=O)NCCc1ncc(C(F)(F)F)cc1Cl [Compound A-79] | good to average |
| O=C(NCCc1ncc(C(F)(F)F)cc1Cl)c1cc(Cl)ccc1I [Compound A-188] | good to average |
| O=C(NCCc1ncc(C(F)(F)F)cc1Cl)c1c(C(F)(F)F)ccc(Cl)c1F [Compound A-75] | good to average |
| O=C(NCCc1ncc(C(F)(F)F)cc1Cl)c1cc(Cl)ccc1Br [Compound A-100] | good to average |
| CCCOc1ccccc1C(=O)NCCc1ncc(C(F)(F)F)cc1Cl [Compound A-91] | good to average |
| COc1cc([N+](=O)[O-])ccc1C(=O)NCCc1ncc(C(F)(F)F)cc1Cl [Compound A-171] | good to average |
| O=C(NCCc1ncc(C(F)(F)F)cc1Cl)c1cc(C(F)(F)F)ccc1C(F)(F)F [Compound A-72] | good to average |
| O=C(NCCc1ncc(C(F)(F)F)cc1Cl)c1cc(Br)ccc1I [Compound A-183] | good to average |
| CCOc1ccccc1C(=O)NCCc1ncc(C(F)(F)F)cc1Cl [Compound A-86] | good to average |
| O=C(NCCc1ncc(C(F)(F)F)cc1Cl)c1ccc(I)c(Br)c1 [Compound A-158] | good to average |
| O=C(NCCc1ncc(C(F)(F)F)cc1Cl)c1ccc(Cl)cc1Br [Compound A-110] | good to average |
| COc1ccc(OC)c(C(=O)NCCc2ncc(C(F)(F)F)cc2Cl)c1 [Compound A-85] | good to average |
| CSc1c(C(=O)NCCc2ncc(C(F)(F)F)cc2Cl)ccc(Cl)c1Cl [Compound A-144] | good to average |
| Cc1ccc(F)c(C(=O)NCCc2ncc(C(F)(F)F)cc2Cl)c1Cl [Compound A-124] | good to average |
| Cc1c(C(=O)NCCc2ncc(C(F)(F)F)cc2Cl)ccc(Cl)c1F [Compound A-162] | good to average |
| CSc1ccc(Cl)c(C(=O)NCCc2ncc(C(F)(F)F)cc2Cl)c1 [Compound A-99] | good to average |
| O=C(NCCc1ncc(C(F)(F)F)cc1Cl)c1cc(F)c(F)cc1Cl [Compound A-107] | good to average |
| Cc1ccc(Cl)c(C(=O)NCCc2ncc(C(F)(F)F)cc2Cl)c1F [Compound A-182] | good to average |
| CSc1ccc(C(=O)NCCc2ncc(C(F)(F)F)cc2Cl)c(Br)c1 [Compound A-150] | good to average |
| CS(=O)(=O)c1ccc(C(=O)NCCc2ncc(C(F)(F)F)cc2Cl)c(Cl)c1O [Compound A-136] | good to average |

Same assay, conditions: 500 g/ha, preventive spray 24 h before inoculation

| Compound | effectiveness (percentage of control relative to untreated plants) |
| --- | --- |
| COc1ccc(C(=O)NCCc2ncc(C(F)(F)F)cc2Cl)cc1OC [Compound A-13] | good to average |
| COc1cc(OC)cc(C(=O)NCCc2ncc(C(F)(F)F)cc2Cl)c1 [Compound A-14] | good to average |
